# In patent US20240182480A1, “5-HT2A AND/OR 5-HT2C RECEPTOR AGONISTS” (priority 2021, published 2024):
# Where two headings read alike, the source gives them in different places.
# What was measured:
# 5-HT2A = target: T1, 5-HT2A (Homo sapiens, UniProt P28223); assay: cell-based; conditions: FLIPR calcium assay, agonist mode
# T1 construct: expressed in transfected cells; the paragraph before it names a CHO-K1-mt aequorin Gα16 cell line
# 5-HT2B = target: T2, 5-HT2B (Homo sapiens, UniProt P41595); assay: cell-based; conditions: FLIPR calcium assay, agonist mode
# T2 construct: expressed in transfected cells; the paragraph before it names a CHO-K1-mt aequorin Gα16 cell line
# 5-HT2C = target: T3, 5-HT2C (Homo sapiens, UniProt P28335); assay: 5-HT2C pharmacological screening by FLIPR assay in agonist mode; format: cell-based
# T3 construct: expressed in transfected cells; the paragraph before it names a CHO-K1-mt aequorin Gα16 cell line
# T3 sequence (P28335 33-458): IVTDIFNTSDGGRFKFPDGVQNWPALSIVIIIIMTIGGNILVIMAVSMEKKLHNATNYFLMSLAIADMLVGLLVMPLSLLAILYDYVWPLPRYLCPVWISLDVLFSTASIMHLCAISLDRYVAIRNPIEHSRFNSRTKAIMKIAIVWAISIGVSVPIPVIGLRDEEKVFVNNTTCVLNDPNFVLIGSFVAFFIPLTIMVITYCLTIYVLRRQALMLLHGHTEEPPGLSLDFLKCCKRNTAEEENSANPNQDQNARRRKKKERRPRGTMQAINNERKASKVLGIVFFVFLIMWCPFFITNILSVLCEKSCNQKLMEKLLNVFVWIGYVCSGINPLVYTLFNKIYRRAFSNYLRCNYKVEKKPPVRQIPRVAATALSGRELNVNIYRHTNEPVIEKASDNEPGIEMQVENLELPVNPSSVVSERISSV
# [1] = 5-HT2A (EC50, % max activity), class symbols
# [2] = 5-HT2A, (EC50, % max activity), approximate values
# [3] = 5-HT2B (EC50, % max activity), class symbols
# [4] = 5-HT2B, (EC50, % max activity), approximate values
# [5] = FLIPR calcium assay, agonist mode, approximate values, read-out: 5-HT2C, (EC50, % max activity)
# [6] = FLIPR calcium assay, agonist mode, class symbols, read-out: 5-HT2C (EC50, % max activity)
# [7] = class symbols, read-out: 5-HT2A (EC50, % max activity)
# [8] = class symbols, read-out: 5-HT2B (EC50, % max activity)
# T2 sequence (P41595 whole entry): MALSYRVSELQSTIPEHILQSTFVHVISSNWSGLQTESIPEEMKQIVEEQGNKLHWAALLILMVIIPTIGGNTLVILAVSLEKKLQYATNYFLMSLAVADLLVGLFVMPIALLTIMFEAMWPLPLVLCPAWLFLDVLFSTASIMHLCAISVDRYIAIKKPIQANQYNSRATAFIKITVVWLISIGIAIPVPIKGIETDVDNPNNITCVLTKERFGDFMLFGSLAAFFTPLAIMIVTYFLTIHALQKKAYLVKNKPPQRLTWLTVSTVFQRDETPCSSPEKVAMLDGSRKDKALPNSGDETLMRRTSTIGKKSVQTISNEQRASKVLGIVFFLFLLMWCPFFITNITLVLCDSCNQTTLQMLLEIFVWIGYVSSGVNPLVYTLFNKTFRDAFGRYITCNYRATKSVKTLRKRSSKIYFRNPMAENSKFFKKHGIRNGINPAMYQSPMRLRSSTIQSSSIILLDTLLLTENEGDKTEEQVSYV
# T1 sequence (P28223 whole entry): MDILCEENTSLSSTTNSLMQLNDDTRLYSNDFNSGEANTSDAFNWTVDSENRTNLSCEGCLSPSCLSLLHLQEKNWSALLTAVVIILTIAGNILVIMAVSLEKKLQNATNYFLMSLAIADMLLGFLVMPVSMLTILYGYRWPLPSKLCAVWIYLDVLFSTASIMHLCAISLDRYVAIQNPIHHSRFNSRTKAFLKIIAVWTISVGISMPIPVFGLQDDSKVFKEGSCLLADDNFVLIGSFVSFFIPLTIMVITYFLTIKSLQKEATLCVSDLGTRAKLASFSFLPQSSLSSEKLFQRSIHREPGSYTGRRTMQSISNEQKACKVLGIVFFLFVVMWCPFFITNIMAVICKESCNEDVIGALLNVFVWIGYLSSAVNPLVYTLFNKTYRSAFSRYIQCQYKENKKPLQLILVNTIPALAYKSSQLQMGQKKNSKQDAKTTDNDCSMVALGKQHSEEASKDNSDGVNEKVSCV
SMILES,EC50 (5-HT2A; [7]) [nM],EC50 (5-HT2B; [8]) [nM],EC50 (5-HT2A; [1]) [nM],EC50 (5-HT2B; [3]) [nM],further results
"c1nc2c(nc1N1CCCOCC1)CCNCC2 [Example 1, 4-(6,7,8,9-tetrahydro-5H-pyrazino[2,3-d]azepin-2-yl)-1,4-oxazepane]",–,–,1000 to 6000,> 6000,EC50 (5-HT2A; [2]): ~2000 nM; EC50 (5-HT2B; [4]): > 30000 nM; EC50 (5-HT2C; [5]): ~100 nM; EC50 (5-HT2C; [6]): < 200 nM
"FC1(F)CCN(c2cnc3c(n2)CCNCC3)CC1 [Example 2, 2-(4,4-difluoropiperidin-1-yl)-6,7,8,9-tetrahydro-5H-pyrazino[2,3-d]azepine]",–,–,200 to 1000,1000 to 6000,EC50 (5-HT2A; [2]): ~900 nM; EC50 (5-HT2B; [4]): ~4000 nM; EC50 (5-HT2C; [5]): ~200 nM; EC50 (5-HT2C; [6]): < 200 nM
"c1nc2c(nc1N1CCCC1)CCNCC2 [Example 16, 2-(pyrrolidin-1-yl)-6,7,8,9-tetrahydrahydro-5H-pyrazino[2,3-d]azepine]",> 6000,200 to 1000,–,–,–
"c1ccc(COc2cnc3c(n2)CCNCC3)cc1 [Example 18, 2-(benzyloxy)-6,7,8,9-tetrahydro-5H-pyrazino[2,3-d]azepine]",–,–,> 6000,< 200,–
"Clc1cnc2c(n1)CCNCC2 [Example 20, 2-chloro-6,7,8,9-tetrahydro-5H-pyrazino[2,3-d]azepine]",–,–,> 6000,> 6000,–
"CN1CCc2[nH]c3ncccc3c2CC1 [Example 22, 7-methyl-5,6,7,8,9,10-hexahydropyrido[3′,2′:4,5]pyrrolo[2,3-d]azepine]",–,–,> 6000,> 6000,"EC50 (5-HT2C; 5-HT2C (EC50, % max activity, FLIPR calcium assay, agonist mode), class symbols): > 6000 nM"

# Now from value to compound, other results behind:
EC50 (5-HT2A; [7]) [nM],EC50 (5-HT2B; [8]) [nM],SMILES,EC50 (5-HT2A; [1]) [nM],EC50 (5-HT2B; [3]) [nM],further results
1000 to 6000,200 to 1000,"FC1CCN(c2cnc3c(n2)CCNCC3)CC1 [Example 4, 2-(4-fluoropiperidin-1-yl)-6,7,8,9-tetrahydro-5H-pyrazino[2,3-d]azepine]",–,–,–
> 6000,200 to 1000,"CN(C)c1cnc2c(n1)CCNCC2 [Example 15, N,N-dimethyl-6,7,8,9-tetrahydro-5H-pyrazino[2,3-d]azepin-2-amine]",–,–,–
> 6000,> 6000,"FC1CN(c2cnc3c(n2)CCNCC3)C1 [Example 17, 2-(3-fluoroazetidin-1-yl)-6,7,8,9-tetrahydro-5H-pyrazino[2,3-d]azepine]",–,–,–
> 6000,> 6000,"Nc1cnc2c(n1)CCNCC2 [Example 19, 6,7,8,9-tetrahydro-5H-pyrazino[2,3-d]azepin-2-amine]",–,–,–
